Test system: 843126-344-R-J1-PDC complex spheroid viability
Assay: Anticancer human tumor 843126-344-R-J1-PDC patient-derived melanoma cell line growth inhibition [POLQ]
Details: for IC50: curve of first compound; for viability, T/C: stronger effect = lower value
Procedure, shortened: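 Three-cell-type spheroids modelling solid tumor plus stroma served as the readout system; POL inhibitors were tested individually and in combination, concentration ranges set by clinical Cmax where known.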

[1] = second compound 0.0316 µM, first compound 0.0316 µM
[2] = second compound 0.0316 µM, first compound 0.1 µM
[3] = second compound 0.1 µM, first compound 0.0316 µM
[4] = second compound 0.1 µM, first compound 0.1 µM
[5] = second compound 0.316 µM, first compound 0.0316 µM
[6] = second compound 0.316 µM, first compound 0.1 µM
[7] = second compound 1 µM, first compound 0.0316 µM
[8] = second compound 1 µM, first compound 0.1 µM
[9] = second compound 3.16 µM, first compound 0.0316 µM
[10] = second compound 3.16 µM, first compound 0.1 µM
[11] = second compound 10 µM, first compound 0.0316 µM
[12] = second compound 10 µM, first compound 0.1 µM
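Throughout, for viability, T/C: spheroids exposed to drugs for seven days before readout.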

## CC[C@@]1(O)C(=O)OCc2c1cc1n(c2=O)Cc2cc3c(CN(C)C)c(O)ccc3nc2-1 + Nc1ccc(C#CCN(C(=O)Cc2ncc(C(F)(F)F)cc2C(F)(F)F)c2ccc(F)cc2)nn1
Second compound 0.0316 µM
  IC50: > 0.1 µM
Second compound 0.1 µM
  IC50: > 0.1 µM
Second compound 0.316 µM
  IC50: > 0.1 µM
Second compound 1 µM
  IC50: > 0.1 µM
Second compound 3.16 µM
  IC50: > 0.1 µM
Second compound 10 µM
  IC50: > 0.1 µM
Second compound 0.0316 µM, first compound 0.000316 µM
  viability, T/C: 85%
Second compound 0.0316 µM, first compound 0.001 µM
  viability, T/C: 94%
Second compound 0.0316 µM, first compound 0.00316 µM
  viability, T/C: 82.8%
Second compound 0.0316 µM, first compound 0.01 µM
  viability, T/C: 100%
[1]
  viability, T/C: 71.1%
[2]
  viability, T/C: 50.2%
Second compound 0.1 µM, first compound 0.000316 µM
  viability, T/C: 103%
Second compound 0.1 µM, first compound 0.001 µM
  viability, T/C: 85.8%
Second compound 0.1 µM, first compound 0.00316 µM
  viability, T/C: 91%
Second compound 0.1 µM, first compound 0.01 µM
  viability, T/C: 87.7%
[3]
  viability, T/C: 67.2%
[4]
  viability, T/C: 55.8%
Second compound 0.316 µM, first compound 0.000316 µM
  viability, T/C: 96.4%
Second compound 0.316 µM, first compound 0.001 µM
  viability, T/C: 81.4%
Second compound 0.316 µM, first compound 0.00316 µM
  viability, T/C: 90.5%
Second compound 0.316 µM, first compound 0.01 µM
  viability, T/C: 91.7%
[5]
  viability, T/C: 72%
[6]
  viability, T/C: 61.1%
Second compound 1 µM, first compound 0.000316 µM
  viability, T/C: 85.1%
Second compound 1 µM, first compound 0.001 µM
  viability, T/C: 93.3%
Second compound 1 µM, first compound 0.00316 µM
  viability, T/C: 102%
Second compound 1 µM, first compound 0.01 µM
  viability, T/C: 93.9%
[7]
  viability, T/C: 63.8%
[8]
  viability, T/C: 49.2%
Second compound 3.16 µM, first compound 0.000316 µM
  viability, T/C: 93.6%
Second compound 3.16 µM, first compound 0.001 µM
  viability, T/C: 98.2%
Second compound 3.16 µM, first compound 0.00316 µM
  viability, T/C: 95.3%
Second compound 3.16 µM, first compound 0.01 µM
  viability, T/C: 106%
[9]
  viability, T/C: 64.9%
[10]
  viability, T/C: 54.7%
Second compound 10 µM, first compound 0.000316 µM
  viability, T/C: 85.9%
Second compound 10 µM, first compound 0.001 µM
  viability, T/C: 87.3%
Second compound 10 µM, first compound 0.00316 µM
  viability, T/C: 87.8%
Second compound 10 µM, first compound 0.01 µM
  viability, T/C: 92.9%
[11]
  viability, T/C: 69.2%
[12]
  viability, T/C: 50%

## COc1ccc([C@@H](O)c2cc(-c3ncnc4cc(N5CCOCC5)ccc34)c(F)cc2Cl)nn1 + Cc1cccc(N(C)C(=O)C2C(O)CCN2c2nc(C)cc(C(F)(F)F)c2C#N)c1
Second compound 0.0316 µM
  IC50: > 10 µM
Second compound 0.1 µM
  IC50: > 10 µM
Second compound 0.316 µM
  IC50: > 10 µM
Second compound 1 µM
  IC50: > 10 µM
Second compound 3.16 µM
  IC50: > 10 µM
Second compound 10 µM
  IC50: > 10 µM
[1]
  viability, T/C: 95.1%
[2]
  viability, T/C: 76.6%
Second compound 0.0316 µM, first compound 0.316 µM
  viability, T/C: 93.3%
Second compound 0.0316 µM, first compound 1 µM
  viability, T/C: 96.9%
Second compound 0.0316 µM, first compound 3.16 µM
  viability, T/C: 81%
Second compound 0.0316 µM, first compound 10 µM
  viability, T/C: 63.5%
[3]
  viability, T/C: 85.2%
[4]
  viability, T/C: 92.7%
Second compound 0.1 µM, first compound 0.316 µM
  viability, T/C: 86.4%
Second compound 0.1 µM, first compound 1 µM
  viability, T/C: 99.2%
Second compound 0.1 µM, first compound 3.16 µM
  viability, T/C: 93.2%
Second compound 0.1 µM, first compound 10 µM
  viability, T/C: 63.3%
[5]
  viability, T/C: 103%
[6]
  viability, T/C: 102%
Second compound 0.316 µM, first compound 0.316 µM
  viability, T/C: 92.2%
Second compound 0.316 µM, first compound 1 µM
  viability, T/C: 102%
Second compound 0.316 µM, first compound 3.16 µM
  viability, T/C: 76.9%
Second compound 0.316 µM, first compound 10 µM
  viability, T/C: 80.9%
[7]
  viability, T/C: 79.2%
[8]
  viability, T/C: 101%
Second compound 1 µM, first compound 0.316 µM
  viability, T/C: 69.6%
Second compound 1 µM, first compound 1 µM
  viability, T/C: 86.6%
Second compound 1 µM, first compound 3.16 µM
  viability, T/C: 79.8%
Second compound 1 µM, first compound 10 µM
  viability, T/C: 68.1%
[9]
  viability, T/C: 81.2%
[10]
  viability, T/C: 89.1%
Second compound 3.16 µM, first compound 0.316 µM
  viability, T/C: 92.7%
Second compound 3.16 µM, first compound 1 µM
  viability, T/C: 81.9%
Second compound 3.16 µM, first compound 3.16 µM
  viability, T/C: 97.4%
Second compound 3.16 µM, first compound 10 µM
  viability, T/C: 65.6%
[11]
  viability, T/C: 74.1%
[12]
  viability, T/C: 83.5%
Second compound 10 µM, first compound 0.316 µM
  viability, T/C: 70.2%
Second compound 10 µM, first compound 1 µM
  viability, T/C: 66%
Second compound 10 µM, first compound 3.16 µM
  viability, T/C: 77.4%
Second compound 10 µM, first compound 10 µM
  viability, T/C: 64.1%

Source: PubChem BioAssay AID1963837 (Molecular Pharmacology Branch, DTP, NCI, 2024)
